“And” between values parts separate entries of the source, which are not always exact repeats. Identical values can stand only once.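 All cell lines were grown in 96-well plates and treated with compound for 48 hours. Here, GI50 denotes the concentration required for 50% inhibition of growth. TGI denotes the concentration required for complete inhibition of growth.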

Test in all cases: NCI-60 cell line screen, 48 h
Test [1] has as its system SK-OV-3 ovarian.
Test [2] deals with PC-3 prostate.
The test system of test [3] is T-47D breast.
The subject of test [4] is MOLT-4 leukemia.
Test [5] deals with M14 melanoma.
In test [6] the test system is KM12 colon.
Test [7] has as its system SN12C renal.
Test [8] has as its system CAKI-1 renal.
Test [9] has as its system ACHN renal.
In test [10] the test system is SR leukemia.

As to `O=C(NO)[C@@H](Cc1ccccc1)NS(=O)(=O)c1ccc(-c2ccccc2)cc1`, the GI50 was over 25 µM in test [1]; 7.97 µM in test [2]; over 25 µM in test [3]; 9.43 µM in test [4]; over 25 µM in [5]; over 25 µM in test [6]. Besides, the values for the GI50 in test [7], in test [8] and in test [9] were over 25 µM, 9.6 µM and 12.2 µM, respectively. Further, the TGI in test [1], in test [2], in [3], in test [4], in test [5] and in [6] was over 25 µM throughout. The TGI in test [7], in [8] and in test [9] was over 25 µM throughout.

As for `OCCNc1nc(Nc2ccc(Cl)c(Cl)c2)nc2ccccc12`, the GI50 in test [10] is 2.65 µM; in [1], 11 µM; in [2], 4.47 µM; in [3], 9.65 µM; in test [4], 1.87 µM; in [6], 4.19 µM. Moreover, the values for the GI50 in test [7], in test [8] and in [9] were 5.37 µM, 4.66 µM and 4.8 µM, respectively. Besides, the TGI in [10] is 9.67 µM; in test [1], 23.4 µM; in [2], 16.6 µM; in test [3], 25.9 µM; in test [4] it was 13.2 µM; in test [6], 16.2 µM. In addition, the figures for the TGI in [7], in [8] and in [9] were 20.7 µM, 18.2 µM and 18.3 µM, respectively.

As to `CCOC(=O)C1=C(C)N(Cc2ccc(Cl)cc2Cl)C2(O)C=CC(=O)C3=C(O)c4ccccc4C(=O)C312` (stereo not drawn), the GI50 in [1] is 17.4 µM; in [2], 2.16 µM; in test [3], 6.83 µM; in test [4] it was 3.87 µM; in [5], 3.97 µM; in [6] it was 4.02 µM. Further, the GI50 in test [7] was 3.39 µM; in test [8], 3.31 µM; in test [9] it was 3.82 µM. Further, the TGI in test [1] is 91.7 µM; in test [2] it was 10.5 µM; in [3], 39.7 µM; in [4], over 100 µM; in test [5], 69.3 µM; in [6], 16.8 µM. For the same molecule, the TGI in test [7] was found to be 15.4 µM; in [8] it was 15 µM; in test [9], 18.2 µM.

Regarding `Cc1cc(N2CCOCC2)nc(N(CCCNc2ccnc3cc(Cl)ccc23)Cc2ccco2)n1`, the GI50 in [10] was 1.42 µM; in test [1] it was 2.84 µM; in [2], 3.03 µM; in [3], 2.06 µM; in [4] it was 3.02 µM; in [5], 1.86 µM. In addition, the GI50 in test [6] is 2.7 µM; in [7], 3.35 µM; in [9], 4.09 µM. Further, the TGI in test [10] was 5.28 µM; in [1] it was 10.7 µM; in test [2], 12.9 µM; in test [3] it was 7.26 µM; in test [4], 13.1 µM; in [5], 4.22 µM. The results for the TGI in test [6], in test [7] and in [9] were 12.8 µM, 14.6 µM and 15.8 µM, respectively.

As to `N#Cc1c(N)nc(N2CCOCC2)c(C#N)c1-c1ccccn1`, the GI50 was over 85.9 µM in [1]; over 100 µM in test [2]; 48.4 µM in test [3]; over 100 µM in [4]; over 100 µM in [5]; over 100 µM in test [6]. Further, the GI50 in test [7], in test [8] and in test [9] was over 100 µM in each case. The TGI in test [1], in [2], in [3], in test [4], in test [5] and in [6] was over 100 µM in each case. Also, the TGI in test [7], in [8] and in [9] was over 100 µM throughout.

Turning to `CC([C@H]1CCC2C3CCC4C[C@@H](N)CC[C@]4(C)C3CC[C@@]21C)N(C)C` (stereo partly drawn), the GI50 in test [1] is 13.4 µM; in test [2], 8.52 µM; in [3], 3.23 µM; in test [4], 5.02 µM; in test [5], 1.79 µM; in test [6], 7.55 µM. Also, the GI50 was 8.17 µM in [7], 5.67 µM in test [8] and 8.99 µM in [9]. Besides, the TGI in test [1] was determined as 30.4 µM; in test [2], 33 µM; in test [3], 17.9 µM; in [4], 17.2 µM; in [5] it was 3.54 µM; in test [6] it was 21.4 µM. Also, the TGI was 25.7 µM in [7], 18.1 µM in test [8] and 21.6 µM in [9].

Consider `CC(C)=CCC/C(C)=C\CCC1(C)OC(=O)C2CC21` (stereo not drawn), for which the GI50 in [10] was 24.3 µM and 6.4 µM; in test [6], 71.2 µM and 24.9 µM; in test [7], > 100 µM and 26.4 µM; in [9], > 100 µM and 25.1 µM. For the same molecule, the TGI in [10] is > 100 µM and 37.2 µM; in [2], > 100 µM and 85.2 µM; in test [3] it was over 100 µM; in test [4], 50 µM and 35 µM; in test [6] it was > 100 µM and 62.8 µM; in test [7], > 100 µM and 64.2 µM. The TGI in [8] was > 100 µM and 43 µM; in test [9], > 100 µM and 59.8 µM.

With `CC(=[N-])N1CCC[C@@H](Nc2c3ccccc3nc3ccccc23)C1.[Cl][Pt].[NH-]CCC[NH-]`, the GI50 in test [10] is 0.445 µM; in test [1] it was 2.43 µM; in [2], 3.57 µM; in test [3], 0.0368 µM; in test [4], 0.359 µM; in test [5], 3.47 µM. The GI50 in [6] is 2.49 µM; in [7], 0.0214 µM; in test [9], 0.159 µM. Moreover, the TGI in test [10] is over 100 µM; in [1], over 100 µM; in [2] it was 44.9 µM; in test [3] it was over 100 µM; in [4] it was over 100 µM; in test [5], 23.7 µM. For the same molecule, the TGI in test [6] was over 100 µM; in test [9], 2.47 µM.

As for `Nc1ccc(-c2cccs2)cc1NC(=O)c1ccc(CCCC(=O)Nc2ccc(C3CC3N)cc2)cc1` (stereo not drawn), the GI50 was 4.37 µM in test [1], 1.75 µM in test [3], 3.43 µM in test [6] and over 100 µM in test [8]. Further, the TGI in test [1] is 37.1 µM; in test [3] it was 4.82 µM; in test [6], over 100 µM; in [8] it was over 100 µM.

`CCOC(=O)c1cc(-c2ccccc2)[nH]c1N/N=C/c1ccc(Cl)cc1`: the GI50 in [1] was over 100 µM; in test [2] it was 21.8 µM; in test [3] it was 45.5 µM; in test [4] it was 16.8 µM; in test [6] it was over 100 µM; in [7], over 100 µM. Further, the GI50 was 30.9 µM in [8] and over 100 µM in test [9]. For the same molecule, the TGI in [1], in [2], in [3], in test [4], in test [6] and in test [7] was over 100 µM each time. Further, the TGI in [8] and in test [9] was over 100 µM in each case.

In the case of `Oc1c(Cl)cc(Cl)cc1C(c1cc(Cl)cc(Cl)c1O)C(Cl)(Cl)Cl`, the GI50 is 3.01 µM in [1]; 2.19 µM in test [2]; 2.39 µM in test [3]; 3.67 µM in [4]; 3.11 µM in test [5]; 2.83 µM in [6]. The GI50 in test [7] was 1.78 µM; in [8], 0.472 µM; in test [9] it was 2.82 µM. Moreover, the TGI in test [1] was 13.3 µM; in test [2], 10.9 µM; in test [3], 11.3 µM; in test [4], 10.4 µM; in test [5], 10.1 µM; in test [6] it was 10.1 µM. The results for the TGI in [7], in test [8] and in test [9] were 13.7 µM, 2.06 µM and 12 µM, respectively.

Regarding `CN(CC(=O)Nc1nc2ccccc2[nH]1)S(=O)(=O)c1ccc(Cl)cc1`, the GI50 in test [10], in [1], in [3], in [4], in test [5] and in [6] was over 100 µM throughout. Also, the GI50 in test [7], in test [8] and in test [9] was over 100 µM each time. The TGI in test [10], in test [1], in [3], in [4], in test [5] and in [6] was over 100 µM throughout. Moreover, the TGI in test [7], in test [8] and in test [9] was over 100 µM throughout.

Regarding `Cc1cn2c(/C=N/N=C(N)N)c(-c3ccccn3)nc2s1`, the GI50 in test [1] was 26.8 µM; in test [2] it was 15.6 µM; in [3] it was 7.59 µM; in test [4] it was 8.67 µM; in test [5] it was 19.6 µM; in test [6], 15.4 µM. Further, the figures for the GI50 in [7], in test [8] and in [9] were 14.7 µM, 20.8 µM and 21.8 µM, respectively. Also, the TGI is over 65 µM in test [1]; 53.9 µM in test [2]; 18.2 µM in [3]; over 100 µM in test [4]; over 52.1 µM in test [5]; 33.2 µM in test [6]. For the same molecule, the TGI stood at 29.5 µM in [7], 41.7 µM in test [8] and 51.7 µM in test [9].

Regarding `O=C1c2ccccc2-c2c1c1c(O)cccc1n2Cc1ccccn1`, the GI50 in test [1] is 89 µM; in [2], 43.8 µM; in [3] it was over 100 µM; in [4], 91.4 µM; in test [5] it was 70.7 µM; in test [6], over 100 µM. The GI50 was 63.3 µM in test [7], 20.4 µM in test [8] and 25.8 µM in [9]. The TGI in test [1], in test [2], in [3], in test [4], in test [5] and in [6] was over 100 µM throughout. The TGI in [7], in test [8] and in [9] was over 100 µM in each case.

On to `CN(C)CCNc1c2ccccc2nc2oc3ccccc3c12`, for which the GI50 in test [1] was 7.11 µM; in test [2] it was 3.4 µM; in [3], 4.72 µM; in [4] it was 3 µM; in test [5] it was 11.3 µM; in [6], 6.84 µM. The values for the GI50 in [7], in test [8] and in test [9] were 5.66 µM, 14.5 µM and 4.48 µM, respectively. The TGI in test [1] worked out at 28.5 µM; in test [2], 19.5 µM; in test [3] it was 26.7 µM; in test [4], 12.1 µM; in test [5], 32.5 µM; in [6] it was 33.9 µM. Further, the results for the TGI in [7], in test [8] and in test [9] were 34 µM, over 100 µM and 25.8 µM, respectively.

Turning to `O=C(O)c1c(=O)cccc2ssc12`, the GI50 was 1.74 µM in test [1]; 1.83 µM in test [2]; 2.15 µM in [3]; 2.13 µM in [4]; 1.92 µM in test [5]; 1.9 µM in test [6]. Besides, the GI50 in test [7] was 2.49 µM; in test [8], 12 µM; in test [9], 1.72 µM. The TGI in test [1] is 3.26 µM; in test [2], 3.58 µM; in test [3], 5.24 µM; in test [4], 5.11 µM; in test [5], 4.07 µM; in [6], 3.72 µM. The figures for the TGI in test [7], in test [8] and in test [9] were 6.32 µM, 24.6 µM and 3.21 µM, respectively.

Take `O=C1OC(=O)C2CCCC3CCCC1C32` (stereo not drawn): the TGI in test [1], in [2], in test [3], in test [4], in test [5] and in [6] was over 100 µM in each case. The TGI in [7], in [8] and in test [9] was over 100 µM throughout.

Source of the values: PubChem BioAssay (NCI).
